Drawing on ChEMBL document CHEMBL5209577, “Flow cytometry transport assay for SLC2A1 using HEK293 JumpIN TRex SLC2A1 WT-OE cells” (2022), this text covers IC50 and EC50 for two molecules.

The target in this experiment is T1, Solute carrier family 2, facilitated glucose transporter member 1 (Homo sapiens, UniProt P11166).
T1 sequence (P11166 whole entry): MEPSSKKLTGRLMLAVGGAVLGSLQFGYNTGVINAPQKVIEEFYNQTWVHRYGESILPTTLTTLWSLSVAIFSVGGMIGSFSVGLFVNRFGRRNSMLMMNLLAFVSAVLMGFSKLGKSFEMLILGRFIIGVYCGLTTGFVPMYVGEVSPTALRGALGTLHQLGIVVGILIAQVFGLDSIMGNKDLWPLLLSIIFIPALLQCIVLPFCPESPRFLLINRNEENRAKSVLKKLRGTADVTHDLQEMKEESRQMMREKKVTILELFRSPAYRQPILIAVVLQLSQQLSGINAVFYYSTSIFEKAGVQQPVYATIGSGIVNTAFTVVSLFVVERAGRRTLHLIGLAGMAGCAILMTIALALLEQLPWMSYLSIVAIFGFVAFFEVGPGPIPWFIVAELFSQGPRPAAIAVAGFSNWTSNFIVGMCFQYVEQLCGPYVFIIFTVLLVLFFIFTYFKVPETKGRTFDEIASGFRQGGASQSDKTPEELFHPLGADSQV
The experiment in a line: Inhibition of the Glucose Transporter (GLUT1, SLC2A1) as assessed by a FRET based flow cytometry assay using a genetically-encoded biosensor for measuring free glucose (FLII12Pglu-700uDelta6) in HEK293 JumpIN TRex SLC2A1 WT-OE cells (PubChem AID: 1794830). The experiment is classed as functional, cell-based. (A flow cytometer gives signals particle by particle.)

The structures appear in SMILES notation.

A word on the IC50: it is the concentration at which inhibition is half-maximal. A higher IC50 goes with lower potency. In turn, `O=C(Oc1cccc(F)c1OC(=O)c1cccc(O)c1)c1cccc(O)c1` displayed an IC50 of over 10 µM.

A word on the EC50: it is the concentration that produces a half-maximal response. A higher EC50 goes with weaker potency. In the case of `OC[C@H]1OC(O)[C@H](O)[C@@H](O)[C@@H]1O` (some centres not stated) [DEXTROSE], the midpoint of the response, the EC50, lay at 527 µM.
